The test system of one data set is MG63 and HOB cells. Briefly: Cell proliferation / toxicity by MTS assay. The class given is cell-based, human. The note with it: 50 and 100 nM, 24 h post transfection. As to the method: Cell proliferation was assessed by MTS (3-(4,5-dimethylthiazol-2-yl)-5-(3-carboxymethoxyphenyl)-2-(4-sulfophenyl)-2H-tetrazolium, inner salt) reagent assay: MG63 cells were seeded at a density of 35 000 cells in 24-well culture plates, and cultured for 24 hours as mentioned above. Cells were transfected with 50 nM or 100 nM concentrations of cpRNA and negative control siRNAs with or without MATra-si, while control wells were left untreated. Each transfection experiment was performed in triplicate. Post-transfection, cells were incubated for 24 hours at 37° C. The viable cells were evaluated by MTS assay, using CellTiter 96®AQueousOne Solution Cell Proliferation Assay (Promega, USA) according to the manufacturer's protocol. The enzymatic reduction in MTS to formazan was quantified by an ELISA plate reader (Thermo Scientific) at 490 nm.
Thus, the role of siRNA topography on immune activation and cellular toxicity was investigated because increased RNA length has been reported to cause toxicity with increased interferon (IFN)-β expression. toxicity studies were performed using the MTS assay with two concentrations of GAPDH siRNA (50 and 100 nM) with different overhang lengths (dT2, dT5, and dT8) in MG63 and HOB cells and compared it with the scrambled siRNA sequence (FIG. 5).
Background: Tetrazolium assays rely on reduction of a dye to a coloured formazan, in cell work by metabolically active cells.

Data set [1] can be described thus: Thermal denaturation (Tm) of siRNA duplexes. It is filed as physicochemical. The note with it: for Tm: 7.5 mM phosphate buffer pH 7.0 containing 140 mM KCl, 1 μM strands, 40-95° C. The procedure:
Thermal denaturation studies of siRNA was carried out in phosphate buffer, pH 7.0, containing 140 mM KCl. UV absorbance was monitored at 260 nm in the temperature range from 40 to 95° C. using a Lambda 35 UV-Vis spectrophotometer equipped with a Peltier temperature programmer with a heating rate of 0.5° C./min. Samples (1 μM RNA) were denatured at 90° C. for 3 min followed by slow cooling to 27° C. prior to the measurements. Tm values were obtained from the maxima of the first derivatives of the melting curves. All Tm values given are the averages of three independent sets of experiments (±0.3° C. error range).

Another data set has as its system GAPDH. The data set is described as follows: GAPDH gene knockdown in MG63 cells by RT-PCR. The note with it: for GAPDH gene knockdown: 50 nM, 24 h. The class given is cell-based, human. The procedure: At 70% confluency, a day prior to transfection, the cells were seeded at a density of 35 000 cells in a 24-well cell culture plate to achieve 60-80% confluence at the day of transfection. Cell penetrating siRNAs (cpRNAs) of different lengths were transfected at 50 nM concentrations with Magnet Assisted Transfection (MATra-si) reagent for siRNAs (IBA GmbH, Göttingen, Germany) according to the manufacturers' protocols. Briefly, the siRNA was mixed with MATra-si reagent composed of supermagnetic ironoxide nanoparticles and incubated for 20 min. A complex was formed which was added to the cells to be transfected. A strong magnetic force was applied beneath the cells for 15 min. This forced the complex to be drawn into the cells by the magnetic field, and as a result the siRNA was delivered directly into the cytosol. For carrier free transfection experiments, cpRNAs were simply added to cells lines MG63, HOB, HCT116, fibroblasts and keratinocytes at 50 nM concentrations. Cells were also transfected with negative control siRNA (scrambled sequence) and cells left untreated were taken as controls. Each transfection was performed in triplicate. Post transfection, cells were incubated for 24 hours.
For the experiments involving lysosomotropic agent chloroquine (CQ), CQ was first neutralized to pH 7.4 using 1 M NaOH prior to use. MG63 cells were transfected with dT2, dT5, dT8, (dT5)2, as(dT5), and bl(dT5) siRNA in presence or absence of 100 μM CQ or using MATra-si and incubated for 24 h. Similar experiments were performed for other cpRNAs namely, dA5, dT5, dG5, (dT5)2, rA5 and dC5. For the control experiment, cells were either left untreated or transfected with negative control siRNA (scrambled sequence). Each transfection experiment was performed in triplicate.
After performing transfection experiments for 24 h, 48 h and 72 h respectively, total RNA was isolated from cells by adding 500 μl of lysis buffer (Qiagen, Germany), followed by homogenization of cell lysates using QIAshredder (Qiagen, Germany). RNA was extracted from cell lysates by RNeasy Mini Kit (Qiagen, Germany). All RNA samples were treated with DNase using TURBO-DNAfree (Ambion, USA). Agilent 2100 BioAnalyzer (Agilent Technologies, Palo Alto, Calif.) was used to confirm high quality of all RNA samples, which reports an RNA Integrity Number (RIN) that takes into account the entire electrophoretic RNA trace produced in the analysis. A RIN of greater than or equal to seven indicates the RNA is suitable for high stringency applications.
cDNA synthesis was performed in triplicate using total RNA reverse transcribed using High Capacity cDNA reverse transcription kit (Applied Biosystems, USA), with non-template control added to ensure a lack of signal in assay background. Reactions were incubated on a 96-well Applied Biosystems 9800 Fast Thermal Cycler PCR System at 37° C. for 60 min followed by 95° C. for 5 min. The real-time PCR reactions were carried out with 10 μl of 2×TaqMan® Universal PCR Master Mix, no AmpErase® UNG (Applied Biosystems, USA), 9 μl diluted cDNA, and 1 μl of TaqMan gene specific assay mix in a 20 μl final reaction volume. Reference gene beta-actin (ACTB) (Applied Biosystems, USA) was selected as control for normalization of TaqMan data. The assay included a no-template control, a standard curve of five serial dilution points (in steps of 3-fold) of cDNA mixture. Probes specific for IFN-α (Hs01022060_m1), IFN-β (Hs01077958_s1), IFN-γ (Hs00985251_m1), ACTB(Hs01060665_g1) and GAPDH (Hs02758991_g1) were purchased from Applied Biosystems. The amplification was carried out using the 7500 Fast Real-Time PCR System (Applied Biosystems, USA) using a 40-cycle program. The 7500 software automatically calculates raw Ct (cycle threshold) values. Data from samples with a Ct value equal to or below 35 were further analyzed. […]

[2] abbreviates: MG63 cells, MATra-si transfection.
Where [3] appears, read: MG63 cells, carrier-free transfection.

d = 2'-deoxy (DNA); r = 2'-OH (RNA)

As a reminder, the Tm is the temperature at which the thermal transition is half complete. On to “dT2: Canonical GAPDH siRNA, sense SEQ ID NO: 1, antisense SEQ ID NO: 2, dTdT 3′-overhang on both strands (sense CCGAGCCACAUCGCUCAGATT; antisense UCUGAGCGAUGUGGCUCGGTT; sugars from the 5' end r19 d2, backbone not given here) [reference compound]”, for which the “cytotoxicity (MTS assay)” value in the data set on MG63 and HOB cells was “do not impose toxicity”. Moreover, in data set [1], the Tm came to 81.2 °C. Besides, the GAPDH gene knockdown stood at 60% in the data set on GAPDH (setting [2]) and 28% in the data set on GAPDH (setting [3]).

On to “dT5: GAPDH siRNA, sense SEQ ID NO: 3 with dT5 3′-overhang, antisense SEQ ID NO: 2 with dT2 (sense CCGAGCCACAUCGCUCAGATTTTT; antisense UCUGAGCGAUGUGGCUCGGTT; sense: sugars from the 5' end r19 d5, backbone not given here; antisense: sugars from the 5' end r19 d2, backbone not given here)”, for which the “cytotoxicity (MTS assay)” value with MG63 and HOB cells is given as “do not impose toxicity”. The Tm in data set [1] stood at 80.6 °C. In addition, in data set [1] (Tm relative to canonical siRNA (dT2)), the “Δ Tm” value is −0.6 °C. Moreover, the “drop in Tm” value in data set [1] (as compared to canonical siRNA) was “about 0.5 °C”. Besides, the “GAPDH mRNA knockdown efficiency over time” value in the data set on GAPDH (MG63, 50 nM, 24, 48 and 72 h, cpRNA without transfection reagent vs canonical siRNA with transfection reagent) was “higher gene knockdown efficiency for over 72 hrs”. Moreover, the “RNAi activity among different 5-nt candidates” value in the data set with GAPDH (MG63 cells, FIG. 2B) is reported as “highest RNAi activity”. Moreover, the “enhancement in activity compared to canonical siRNA” value with GAPDH (setting [2]) turned out to be 20%. Besides, the GAPDH gene knockdown with GAPDH (setting [3]) turned out to be 80%.

For the origin of these results see patent publication US20180265867A1, “NUCLEIC ACID MOLECULES WITH ENHANCED ACTIVITY” (priority 2015, published 2018).
